ChEMBL document CHEMBL5705903, “A DNA Hypomethylation Signature Predicts Antitumor Activity of LSD1 Inhibitors in SCLC” (Cancer Cell, 2015)
Active and inactive are the calls of the source. The rule behind the calls is not given here.

Key:
NCI-H526 [1] = assay: Antitumor activity against human NCI-H526 cells xenografted in nude mouse assessed as tumor growth inhibition at 1.5 mg/kg, po administered daily measured twice weekly relative to control; assay type: functional; details: read-out: TGI
[2] = Effect on cleaved PARP level in human NCI-H69 cells assessed as relative expression at 10 nM measured after 14 days by Western blot analysis (reference value: 0.03); assay type: functional; details: time 14 day
[3] = Effect on cleaved PARP level in human NCI-H510 cells assessed as fold change at 10 nM measured after 10 days by Western blot analysis (reference value: 1.00); assay type: functional, NCI-H510A; details: time 10 day
[4] = Effect on cleaved PARP level in human NCI-H2171 cells assessed as relative expression at 1000 nM measured after 7 days by Western blot analysis (reference value: 0.02); assay type: functional; details: time 7 day
[5] = Effect on cleaved PARP level in human NCI-H2171 cells assessed as relative expression at 10 nM measured after 7 days by Western blot analysis (reference value: 0.02); assay type: functional; details: time 7 day
[6] = Effect on cleaved PARP level in human NCI-H1417 cells assessed as relative expression at 100 nM measured after 10 days by Western blot analysis (reference value: 0.19); assay type: functional; details: time 10 day
[7] = Effect on cleaved PARP level in human NCI-H526 cells assessed as fold change at 10 nM measured after 7 days by Western blot analysis (reference value: 1.00); assay type: functional; details: time 7 day
[8] = Effect on cleaved PARP level in human NCI-H526 cells assessed as fold change at 1000 nM measured after 10 days by Western blot analysis (reference value: 1.00); assay type: functional; details: time 10 day
[9] = AUC (0 to last) in mouse blood at 5 mg/kg, po by HPLC/MS/MS analysis; assay type: ADME, organism-based
[10] = Effect on cleaved PARP level in human COLO-668 cells assessed as relative expression at 100 nM measured after 14 days by Western blot analysis (reference value: 3.50); assay type: functional; details: time 14 day
[11] = Effect on cleaved PARP level in human NCI-H69 cells assessed as relative expression at 1000 nM measured after 7 days by Western blot analysis (reference value: 0.02); assay type: functional; details: time 7 day
[12] = Effect on cleaved PARP level in human NCI-H69 cells assessed as relative expression at 10 nM measured after 10 days by Western blot analysis (reference value: 0.03); assay type: functional; details: time 10 day
NCI-H526 [13] = assay: In vivo inhibition of LSD1 in human NCI-H526 cells xenografted in nude mouse assessed as change in ODZ2 gene expression administrated daily for 5 days by qRT-PCR analysis; assay type: functional, organism-based; details: dose 0.02-135 mg/kg, time 5.0 day
NCI-H526 [14] = assay: Effect on NSE gene expression in human NCI-H526 cells at 1 uM measured after 4 to 7 days by qRT-PCR analysis; assay type: functional, cell-based; details: time 4-7 day
NCI-H526 [15] = assay: Effect on global H3K4me1 level in human NCI-H526 cells at 10 to 1000 nM measured after 24 hrs by Western blot analysis; assay type: functional, cell-based; details: dose 10-1000 nM
[16] = Effect on cleaved PARP level in human NCI-H889 cells assessed as fold change at 1000 nM measured after 7 days by Western blot analysis (reference value: 1.00); assay type: functional; details: time 7 day
[17] = Toxicity in mouse xenografted with human NCI-H526 cells assessed as drug tolerance at 1.5 mg/kg, po administered daily measured for 30 days; assay type: organism-based; details: in vivo, 720 h, time 30 day
[18] = Effect on cleaved PARP level in human NCI-H510 cells assessed as fold change at 10 nM measured after 7 days by Western blot analysis (reference value: 1.00); assay type: functional, NCI-H510A; details: time 7 day
[19] = Effect on cleaved PARP level in human NCI-H524 cells assessed as relative expression at 100 nM measured after 7 days by Western blot analysis (reference value: 0.63); assay type: functional; details: time 7 day
[20] = Effect on cleaved PARP level in human COLO-668 cells assessed as relative expression at 10 nM measured after 14 days by Western blot analysis (reference value: 3.50); assay type: functional; details: time 14 day
NCI-H1417 = assay: Cell growth inhibition of human NCI-H1417 cells measured for 4 days; assay type: functional, cell-based; details: time 4.0 day
[21] = Cmax in mouse at 5.5 mg/kg, ip by HPLC/MS/MS analysis; assay type: ADME, organism-based; details: in vivo
[22] = AUC (0 to t) in mouse at 5.5 mg/kg, ip by HPLC/MS/MS analysis; assay type: ADME, organism-based; details: in vivo

In the case of O=C(O)c1ccc(CN2CCC(CN[C@@H]3C[C@H]3c3ccccc3)CC2)cc1 [GSK2879552], the inhibition in vivo at 1.5 mg/kg (NCI-H526 [1]) is reported as 57%, the Activity [2] is reported as 0.05 and the “fold change (FC)” value [3] is reported as 4.22. The Activity [4] was 0.04, the Activity [5] was 0.03 and the Activity [6] was 0.4. For the same compound, the “fold change (FC)” value [7] was 0.85, the “fold change (FC)” value [8] was 1.43 and the AUC(0-t) [9] was 853 ng·h/mL. It also gave an Activity [10] of 0.89, an Activity [11] of 0.04 and an Activity [12] of 0.06. For the same compound, the inhibition (NCI-H526 [13]) was “Dose-Dependent Effect”, the Activity (NCI-H526 [14]) was “inactive” and the Activity (NCI-H526 [15]) was “inactive”. The “fold change (FC)” value [16] was 1.92, the Activity [17] was “Non-Toxic” and the “fold change (FC)” value [18] was 1.27. For the same compound, the Activity [19] was 0.6, the Activity [20] was 1.45 and the “growth inhibition (GI)” value (NCI-H1417) was “inactive”.

c1ccc([C@@H]2C[C@H]2NC2CCNCC2)cc1 gave a Cmax [21] of 466 ng/mL and an AUC(0-t) [22] of 871 ng·h/mL.
